From US20260200849A1, “CATIONIC LIPIDS AND PREPARATION METHOD THEREOF” (RiboX Therapeutics HK Limited, priority 2024, published 2026) come the findings set out here.

The test system of data set [1] is MCP-1. The data set is described as follows: In vivo tolerability by IM: serum MCP-1 by Luminex. The note with it: IM 1.0 mg/kg, male C57BL/6J mice N=3, Formulation 001, RNA 331. On the procedure:
(§1) 6-8 week old, male C57BL/6J mice (N=3) were injected with 1.0 mg*kg−1 of RNA-LNPs encoding for firefly-luciferase by intramuscular injection. At 2- and 24-hours post injection, about 40 μL blood was harvested and immediately added to the procoagulant containing tube. Stand for 30 min at room temperature and then centrifuged at 2500 g×10 min to obtain serum. About 15 μL serum samples were aliquoted for cytokine (MCP-1 and IL-6) detection by Luminex (ProcartaPlex Mouse 2-plex, Thermo). PBS group as negative control.

The subject of another data set is injection site skin. Put plainly: In vivo tolerability after intradermal injection: H&E staining of injection site skin. The following applies: intradermal 0.15 mg/kg, 72 h, Formulation 001, RNA 331; for Total score: sum of lesion grades of the group (N=3). Details: species or system C57BL/6J mice; key to Infiltration, mononuclear cells, dermis/subcutaneous, focal, Grade / Edema, subcutaneous, focal, Grade / Erosion, focal, Grade / Skin, Grade: 1==minimal; 2=mild; 3=moderate; 4=marked; 5=severe; N=Normal; NA=Not applicable; —=No data. On the procedure: 7-8 week old, female C57BL/6J mice (N=3) were injected with 0.15 mg*kg−1 of RNA-LNIPs encoding for firefly-luciferase by intradermal injection. At 72-hours post injection, injection site skin from each animal was collected in 10% formalin, for H&E staining. PBS group (N=2) as control. (Note: 1==minimal, 2=mild, 3=moderate, 4=marked, 5=severe; N=Normal; NA=Not applicable; —=No data)

The subject of another data set is hEPO. The data set is described as follows: In vivo expression by IM: serum hEPO concentration by ELISA. The note with it: IM 0.075 mg/kg, male C57BL/6J mice N=3, Formulation 001, RNA 019. On the procedure:
Circular RNA payloads were suspended in 25 mM Acetate Buffer (pH 4.5). To form LNPs, three volumes of human erythropoietin (hEPO) encoding cirRNA (SEQ ID NO:2), were mixed with one volume of lipids in ethanol solution by microfluidic mixing with the INano™ L+ (Micro& Nano) at a flow rate of 12 ml/min. The molar ratio of ionizable lipid to ribonucleotide was 6. After encapsulation, the particles were dialyzed twice against PBS. The LNP formulation was concentrated to targeted RNA concentration by Amicon® Ultra Centrifugal Filter (100 kDa MWCO) and filtered by a 0.65/0.22 um sterile filter.
6-8 week old, male C57BL/6J mice (N=3) were injected with 0.075 mg*kg−1 of RNA-LNPs encoding for hEPO by intramuscular injection. At 2-/6-/24-/48-/72 h-hours post injection, about 80 μL blood will be harvested and immediately added to the procoagulant containing tube. Stand for 30 min at room temperature and then centrifuged at 2500 g×10 min to obtain serum. About 30 μL serum samples will be aliquoted for hEPO concentration detection by ELISA kit (STEMCELL Technologies).

Data set [2] relates to IL-6. Put plainly: In vivo tolerability by IM: serum IL-6 by Luminex. The note with it: IM 1.0 mg/kg, male C57BL/6J mice N=3, Formulation 001, RNA 331. On the procedure: as §1
Data set [3] deals with MCP-1. Put plainly: In vivo tolerability by IV: serum MCP-1 by Luminex. Details: species or system C57BL/6J mice. The note with it: Formulation No. 001, RNA No. 331, male C57BL/6J mice, 1.0 mg*kg/1 intravenous. Summed up:
(§2)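 Male C57BL/6J mice aged 6-8 weeks (N=3) received 1.0 mg*kg−1 firefly-luciferase RNA-LNPs intravenously, with PBS as negative control. Serum taken at 2 and 24 h post-injection was assayed for MCP-1 and IL-6 by Luminex.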

The test system of a further data set is C57BL/6J mice. The data set is described as follows: In vivo expression by IV, 1.0 mg/kg luciferase RNA-LNPs, whole-body and organ IVIS luminescence. The following applies: Formulation No. 001, RNA No. 331; male C57BL/6J mice, 1.0 mg*kg−1 intravenous, 24-hours post injection. In a few lines: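 Male C57BL/6J mice, 6-8 weeks old (N=3), received 1.0 mg*kg−1 firefly-luciferase RNA-LNPs IV. At 24 h post-dose, luciferin (15 mg/ml) was given IP, and whole-body, liver, spleen, kidney, small and large intestine luminescence was imaged by IVIS.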

Data set [4] deals with IL-6. The data set is described as follows: In vivo tolerability by IV: serum IL-6 by Luminex. On the set-up: species or system C57BL/6J mice. The note with it: Formulation No. 001, RNA No. 331, male C57BL/6J mice, 1.0 mg*kg/1 intravenous. Summed up:
as §2

Where “and” joins values, the source holds several entries; their conditions need not be identical. Identical values can stand only once.

Regarding `CCCCC/C=C\C/C=C\CCCCCCCC(=O)NC(COC(=O)NCCN1CCCCC1)C(=O)OCCCCCCCC(=O)OC(CCCCCCCC)CCCCCCCC` (centres unmarked) [Lipid 549], in the data set with MCP-1 [1], the “MCP-1 at 2 h” value was found to be 299 pg/mL and the “MCP-1 at 24 h” value came out at 3980 pg/mL. In the data set on injection site skin (per animal), the “Edema, subcutaneous, focal, Grade” value is “— and 1 (2×)”; the “Erosion, focal, Grade” value was “—”; the “Infiltration, mononuclear cells, dermis/subcutaneous, focal, Grade” value was “— and 1 (2×)”; the “Skin, Grade” value is given as “N”. The compound also yielded a Total score in the data set on injection site skin of 4. The “hEPO conc. (ng/mL) at 2 h” value in the data set with hEPO (2 h) was found to be 2.47 ng/mL. The “hEPO conc. (ng/mL) at 6 h” value in the data set with hEPO (6 h) was 7.26 ng/mL. The “hEPO conc. (ng/mL) at 24 h” value with hEPO (24 h) turned out to be 12.57 ng/mL. The “hEPO conc. (ng/mL) at 48 h” value with hEPO (48 h) came to 2.61 ng/mL. In the data set with hEPO (72 h), the “hEPO conc. (ng/mL) at 72 h” value was 0.87 ng/mL. Besides, in the data set on IL-6 [2], the “IL-6 at 2 h” value was 27 pg/mL and the “IL-6 at 24 h” value worked out at 146 pg/mL.

For the compound `CCCCCCCC/C=C\CCCCCCCC(=O)NC(COC(=O)NCCN1CCCCC1)C(=O)OCCCCCCCCOC(=O)C(CCCCCC)CCCCCCCC` (centres unmarked) [Lipid 700], in the data set with MCP-1 [1], the “MCP-1 at 2 h” value was found to be 281 pg/mL and the “MCP-1 at 24 h” value amounted to 3270 pg/mL. Besides, in the data set with injection site skin (per animal), the “Edema, subcutaneous, focal, Grade” value is 1 (2×) and 2; the “Erosion, focal, Grade” value was “—”; the “Infiltration, mononuclear cells, dermis/subcutaneous, focal, Grade” value was 1. The Total score in the data set with injection site skin amounted to 7. For the same compound, in the data set with IL-6 [2], the “IL-6 at 2 h” value was 15 pg/mL and the “IL-6 at 24 h” value was found to be 143 pg/mL.

Consider `CCCCCCCCC(CCCCCC)C(=O)OCCCCCCCCOC(=O)NC(COC(=O)NCCN1CCCCC1)C(=O)OCCCCCCCCOC(=O)C(CCCCCC)CCCCCCCC` (centres unmarked) [Lipid 888], for which the “MCP-1 at 2 h” value in the data set on MCP-1 [3] (2 hours post injection) came to 396 pg/mL. Also, in the data set on MCP-1 [3] (24 hours post injection), the “MCP-1 at 24 h” value is 206 pg/mL. In addition, in the data set with C57BL/6J mice, the “Kidney (p/s)” value is 2.72E+07 p/s, the “Large intestine (p/s)” value amounted to 1.07E+08 p/s, the “Liver (p/s)” value stood at 4.61E+09 p/s and the “Small intestine (p/s)” value is listed as 8.59E+08 p/s. Besides, in the data set with C57BL/6J mice, the “Spleen (p/s)” value is 2.55E+08 p/s and the “Whole body (p/s)” value was determined as 4.10E+09 p/s. Besides, the “IL-6 at 2 h” value in the data set on IL-6 [4] (2 hours post injection) was found to be 5.5 pg/mL. Further, in the data set on IL-6 [4] (24 hours post injection), the “IL-6 at 24 h” value worked out at 5.71 pg/mL.
